{"source": "patent US20090215857A1", "about": "(Pfizer Products Inc., priority 2005, published 2009)", "key": {"[1]": {"biological_target": "T1, human serotonin transporter (Homo sapiens, UniProt P31645)", "T1 construct": "expressed in transfected cells; host or cells: HEK-293", "T1 sequence (P31645 whole entry)": "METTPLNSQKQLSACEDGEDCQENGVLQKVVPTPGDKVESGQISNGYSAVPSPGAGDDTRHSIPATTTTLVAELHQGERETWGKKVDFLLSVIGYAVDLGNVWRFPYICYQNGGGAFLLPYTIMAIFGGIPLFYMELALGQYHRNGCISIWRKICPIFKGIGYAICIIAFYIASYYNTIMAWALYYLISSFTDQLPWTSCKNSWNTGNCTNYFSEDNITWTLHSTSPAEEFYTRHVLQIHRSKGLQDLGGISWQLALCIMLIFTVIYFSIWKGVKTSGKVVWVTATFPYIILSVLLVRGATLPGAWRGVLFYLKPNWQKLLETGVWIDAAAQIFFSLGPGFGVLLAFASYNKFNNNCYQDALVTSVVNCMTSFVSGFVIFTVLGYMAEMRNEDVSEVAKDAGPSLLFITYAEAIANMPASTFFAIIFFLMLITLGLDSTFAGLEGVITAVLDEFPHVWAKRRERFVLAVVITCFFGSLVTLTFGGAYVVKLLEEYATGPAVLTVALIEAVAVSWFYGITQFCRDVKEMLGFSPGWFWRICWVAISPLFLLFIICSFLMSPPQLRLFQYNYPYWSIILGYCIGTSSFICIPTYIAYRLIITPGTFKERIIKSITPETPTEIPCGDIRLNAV", "experiment": "hSERT receptor binding ([125I]-RTI-55 radioligand)", "settings": "membranes of HEK-293 cells transfected with human serotonin transporter cDNA; 50 pM [125I]-RTI-55; IC50 converted by Cheng-Prusoff; read-out: SERT Ki", "procedure,_shortened": "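Ki values derive via Cheng-Prusoff from IC50s of displacement of 50 pM [125I]-RTI-55 binding to transfected HEK-293 membranes, 90 min at room temperature in pH 7.4 Krebs-HEPES buffer. Compounds spanned 10^−12 to 10^−5 M, in duplicate; nonspecific binding was set with 10 μM citalopram.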"}, "[2]": {"test_system": "capsaicin-induced mechanical allodynia", "experiment": "rat model of capsaicin-induced mechanical allodynia", "assay_type": "in vivo", "settings": "male Sprague-Dawley rats; 10 mg/kg subcutaneously; PWT 1 hour after single dose; mean of eight animals, normalized for vehicle", "method": "Compounds of the present invention may be assayed for their ability to alleviate capsaicin-induced mechanical allodynia in a rat (e.g., Sluka (2002) J of Neuroscience, 22(13): 5687-5693). For example, a rat model of capsaicin-induced mechanical allodynia was carried out as follows:\nOn day 0, male Sprague-Dawley rats (˜150 g) in the dark cycle were placed in suspended wire-bottom cages and allowed to acclimate for 0.5 hour in a darkened, quiet room. The day 0 paw withdrawal threshold (PWT) was determined on the left hind paw by Von Frey hair assessment using the Dixon up and down method. After assessment, the plantar muscle of the right hind paw was injected with 100 μl capsaicin (0.25% (w/v) in 10% ethanol, 10% Tween 80, in sterile saline). On day 6 the PWT of the left hind paw (contralateral from injection site) was determined for each animal. Animals from the day 6 prereads with PWT ≦11.7 g were considered allodynic responders and were regrouped so that each cage had similar mean PWT values. On day 7, responders were dosed subcutaneously with 10 mg compound/kg body weight, or with vehicle alone. The vehicle was phosphate buffered saline containing 2% Cremophor® EL (BASF). The contralateral PWT values were determined at 1 hour after the single dose, with the investigator blinded to the dosing scheme.\nFor each animal, the day 6 PWT value was subtracted from the 1 hour PWT value to give a delta PWT value that represents the change in PWT due to the 1 hour drug treatment. In addition, the day 6 PWT was subtracted from the day 0 PWT to give the baseline window of allodynia present in each animal.\nThe mean percent Inhibition of allodynia values (for eight animals assayed for each compound)+/−the standard error of the mean (SEM) are shown in Table 15."}, "[3]": {"biological_target": "T2, human norepinephrine transporter (Homo sapiens, UniProt P23975)", "T2 construct": "expressed in transfected cells; host or cells: HEK-293", "T2 sequence (P23975 whole entry)": "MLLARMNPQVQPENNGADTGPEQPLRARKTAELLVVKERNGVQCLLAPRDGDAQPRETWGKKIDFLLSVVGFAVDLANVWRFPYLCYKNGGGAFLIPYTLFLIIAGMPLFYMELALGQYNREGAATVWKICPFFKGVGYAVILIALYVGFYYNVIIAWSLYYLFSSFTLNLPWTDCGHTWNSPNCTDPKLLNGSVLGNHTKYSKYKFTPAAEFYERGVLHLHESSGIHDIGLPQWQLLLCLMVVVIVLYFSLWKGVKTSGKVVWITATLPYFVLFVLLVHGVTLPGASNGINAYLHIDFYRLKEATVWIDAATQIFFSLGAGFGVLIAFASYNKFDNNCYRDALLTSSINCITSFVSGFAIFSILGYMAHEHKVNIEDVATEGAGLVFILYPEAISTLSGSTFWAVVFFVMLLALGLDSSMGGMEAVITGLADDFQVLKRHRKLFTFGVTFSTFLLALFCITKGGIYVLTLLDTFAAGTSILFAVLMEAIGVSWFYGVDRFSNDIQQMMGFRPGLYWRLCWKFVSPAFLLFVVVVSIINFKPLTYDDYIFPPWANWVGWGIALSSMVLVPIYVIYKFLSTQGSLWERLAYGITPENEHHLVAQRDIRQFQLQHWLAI", "experiment": "hNET receptor binding ([125I]-RTI-55 radioligand)", "settings": "membranes of HEK-293 cells transfected with human norepinephrine transporter cDNA; 50 pM [125I]-RTI-55; IC50 converted by Cheng-Prusoff; read-out: NET Ki", "procedure,_shortened": "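Membranes from HEK-293 cells expressing human NET were incubated 90 min at room temperature with 50 pM [125I]-RTI-55 and test compound (10^−5M to 10^−12M) in Krebs-HEPES, pH 7.4.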"}, "[4]": {"biological_target": "T3, neuronal α-BGTX-insensitive central nicotinic receptor (Rattus norvegicus, UniProt P09483+P12390)", "T3 construct": "Membrane homogenates of cerebral cortex (800 μg protein) are incubated; from tissue; host or cells: rat cerebral cortex membrane homogenates", "T3 sequence (P09483 31-630)": "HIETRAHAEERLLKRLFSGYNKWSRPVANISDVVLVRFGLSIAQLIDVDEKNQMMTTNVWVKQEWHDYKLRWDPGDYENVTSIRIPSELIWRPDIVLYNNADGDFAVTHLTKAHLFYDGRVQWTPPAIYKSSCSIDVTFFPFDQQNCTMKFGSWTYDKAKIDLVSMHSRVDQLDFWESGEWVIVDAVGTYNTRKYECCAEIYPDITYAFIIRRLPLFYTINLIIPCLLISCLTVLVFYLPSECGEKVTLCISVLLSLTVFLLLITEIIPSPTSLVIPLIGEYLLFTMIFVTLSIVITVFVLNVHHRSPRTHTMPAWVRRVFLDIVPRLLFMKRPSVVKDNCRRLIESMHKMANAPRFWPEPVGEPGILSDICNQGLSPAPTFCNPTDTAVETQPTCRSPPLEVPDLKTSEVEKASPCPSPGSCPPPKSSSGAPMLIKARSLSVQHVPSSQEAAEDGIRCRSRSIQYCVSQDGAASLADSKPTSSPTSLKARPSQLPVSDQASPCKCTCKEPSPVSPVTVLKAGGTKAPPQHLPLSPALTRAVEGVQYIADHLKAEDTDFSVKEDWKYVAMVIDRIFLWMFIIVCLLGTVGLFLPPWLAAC", "T3 sequence (P12390 25-500)": "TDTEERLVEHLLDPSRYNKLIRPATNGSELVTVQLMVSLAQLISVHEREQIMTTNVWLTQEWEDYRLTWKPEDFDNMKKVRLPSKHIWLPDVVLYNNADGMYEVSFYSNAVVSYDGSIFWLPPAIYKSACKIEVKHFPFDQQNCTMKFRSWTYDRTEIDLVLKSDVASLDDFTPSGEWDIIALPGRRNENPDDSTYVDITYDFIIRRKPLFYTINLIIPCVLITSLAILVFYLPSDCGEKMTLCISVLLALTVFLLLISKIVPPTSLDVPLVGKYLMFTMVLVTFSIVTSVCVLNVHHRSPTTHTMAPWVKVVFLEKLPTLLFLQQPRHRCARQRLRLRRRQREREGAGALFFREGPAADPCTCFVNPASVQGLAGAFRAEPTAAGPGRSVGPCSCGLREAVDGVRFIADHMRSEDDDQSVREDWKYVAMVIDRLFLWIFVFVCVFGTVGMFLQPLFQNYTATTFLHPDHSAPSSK", "experiment": "[3H]cytisine radioligand binding assay, rat cerebral cortex", "settings": "10 μM compound; 1.5 nM [3H]cytisine; rat cerebral cortex membrane homogenates; read-out: Percent inhibition at 10 μM of compound (control radioligand specific binding)", "method": "Several compounds were evaluated for their affinity for the neuronal α-BGTX-insensitive central nicotinic receptor in the rat cerebral cortex determined in a radioligand binding assay.\nExperimental protocol Membrane homogenates of cerebral cortex (800 μg protein) are incubated for 75 min at 4° C. with 1.5 nM [^3H]cytisine in the absence or presence of the test compound (10 μM in a buffer containing 50 mM Tris-HCl (pH 7.4), 120 mM NaCl, 5 mM KCl, 1 mM MgCl2 and 2 mM CaCl2.\nNonspecific binding is determined in the presence of 10 μM nicotine.\nFollowing incubation, the samples are filtered rapidly under vacuum through glass fiber filters (Filtermat B, Wallac) presoaked with 0.3% PEI (polyethyleneimine) and rinsed several times with ice-cold 50 mM Tris-HCl using a 48-sample cell harvester (Mach II, Tomtec). The filters are dried then counted for radioactivity in a scintillation counter (Betaplate 1204, Wallac) using a solid scintillator (Meltilex B/HS, Wallac).\nThe results are expressed as a percent inhibition of the control radioligand specific binding.\nThe standard reference compound is nicotine, which is tested in each experiment at several concentrations to obtain a competition curve from which its IC50 is calculated."}}, "note": "Counter-ions that a name gives are not always drawn.", "data": [{"compound": "Fc1ccc(-c2ccc(F)cc2CO[C@H]2CCNC2)c(F)c1.O=C(O)/C=C/C(=O)O", "note": "[Example A-3, (S)-3-(4,2′,4′-Trifluoro-biphenyl-2-ylmethoxy)-pyrrolidine fumarate]", "values": [{"measurement": "Ki", "setting": "[1]", "value": 134, "unit": "nM"}, {"measurement": "% INHIBITION +/− SEM (inhibition of allodynia)", "setting": "[2]", "value": "17.40 +/− 9.9%"}, {"measurement": "Ki", "setting": "[3]", "value": 10.8, "unit": "nM"}]}, {"compound": "FC(F)(F)c1cccc(-c2ccccc2CO[C@H]2CCNC2)c1", "note": "[Example A-18, (S)-3-(3′-Trifluoromethyl-biphenyl-2-ylmethoxy)-pyrrolidine hydrochloride]", "values": [{"measurement": "Ki", "setting": "[1]", "value": 13, "unit": "nM"}, {"measurement": "inhibition at 10 µM", "setting": "[4]", "value": "≤ 21", "unit": "%"}, {"measurement": "Ki", "setting": "[3]", "value": 103, "unit": "nM"}]}, {"compound": "Fc1cc(F)cc(-c2ccccc2CO[C@H]2CCNC2)c1", "note": "[Example A-17, (S)-3-(3′,5′-Difluoro-biphenyl-2-ylmethoxy)-pyrrolidine hydrochloride]", "values": [{"measurement": "Ki", "setting": "[1]", "value": 15.1, "unit": "nM"}, {"measurement": "inhibition at 10 µM", "setting": "[4]", "value": "≤ 21", "unit": "%"}, {"measurement": "Ki", "setting": "[3]", "value": 93.5, "unit": "nM"}]}, {"compound": "Fc1cccc(-c2ccccc2CO[C@H]2CCNC2)c1F.O=C(O)/C=C/C(=O)O", "note": "[Example A-6, (S)-3-(2′,3′-Difluoro-biphenyl-2-ylmethoxy)-pyrrolidine fumarate]", "values": [{"measurement": "Ki", "setting": "[1]", "value": 65.6, "unit": "nM"}, {"measurement": "% INHIBITION +/− SEM (inhibition of allodynia)", "setting": "[2]", "value": "66.20 +/− 7.8%"}, {"measurement": "Ki", "setting": "[3]", "value": 12.9, "unit": "nM"}]}, {"compound": "c1ccc(-c2cccc3ncccc23)c(CO[C@H]2CCNC2)c1", "note": "[Example D-122, (S)-5-[2-(Pyrrolidin-3-yloxymethyl)-phenyl]-quinoline]", "values": [{"measurement": "Ki", "setting": "[1]", "value": 769, "unit": "nM"}, {"measurement": "Ki", "setting": "[3]", "value": 659, "unit": "nM"}]}, {"compound": "CSc1ccccc1-c1ccccc1CO[C@H]1CCNC1", "note": "[Example A-21, (S)-3-(2′-Methylsulfanyl-biphenyl-2-ylmethoxy)-pyrrolidine hydrochloride]", "values": [{"measurement": "Ki", "setting": "[1]", "value": 307, "unit": "nM"}, {"measurement": "Ki", "setting": "[3]", "value": 610, "unit": "nM"}]}, {"compound": "Cl.Fc1ccc(-c2cccc(F)c2F)c(CO[C@H]2CCNC2)c1", "note": "[Example A-4, (S)-3-(4,2′,3′-Trifluoro-biphenyl-2-ylmethoxy)-pyrrolidine hydrochloride]", "values": [{"measurement": "Ki", "setting": "[1]", "value": 139, "unit": "nM"}, {"measurement": "% INHIBITION +/− SEM (inhibition of allodynia)", "setting": "[2]", "value": "30.20 +/− 1.8%"}, {"measurement": "Ki", "setting": "[3]", "value": 11.2, "unit": "nM"}]}, {"compound": "FC(F)(F)Oc1cccc(-c2ccccc2CO[C@H]2CCNC2)c1", "note": "[Example D-17, (S)-3-(3′-Trifluoromethoxy-biphenyl-2-ylmethoxy)-pyrrolidine]", "values": [{"measurement": "Ki", "setting": "[1]", "value": 30.6, "unit": "nM"}, {"measurement": "Ki", "setting": "[3]", "value": 87, "unit": "nM"}]}, {"compound": "Cc1cc(F)ccc1-c1ccc(F)cc1CO[C@H]1CCNC1", "note": "[Example D-106, (S)-3-(4,4′-Difluoro-2′-methyl-biphenyl-2-ylmethoxy)-pyrrolidine]", "values": [{"measurement": "Ki", "setting": "[1]", "value": 372, "unit": "nM"}, {"measurement": "Ki", "setting": "[3]", "value": 121, "unit": "nM"}]}, {"compound": "c1ccc(COc2ccccc2-c2ccccc2CO[C@H]2CCNC2)cc1", "note": "[Example D-48, (S)-3-(2′-Benzyloxy-biphenyl-2-ylmethoxy)-pyrrolidine]", "values": [{"measurement": "Ki", "setting": "[1]", "value": "≥ 10000", "unit": "nM"}, {"measurement": "Ki", "setting": "[3]", "value": 4180, "unit": "nM"}]}, {"compound": "Fc1ccc(-c2ccccc2CO[C@H]2CCNC2)c(F)c1", "note": "[Example A-1, (S)-3-(2′,4′-Difluoro-biphenyl-2-ylmethoxy)-pyrrolidine fumarate]", "values": [{"measurement": "Ki", "setting": "[1]", "value": 103, "unit": "nM"}, {"measurement": "% INHIBITION +/− SEM (inhibition of allodynia)", "setting": "[2]", "value": "40.90 +/− 10.2%"}, {"measurement": "Ki", "setting": "[3]", "value": 10.9, "unit": "nM"}]}, {"compound": "Fc1cccc(-c2ncccc2CO[C@H]2CCNC2)c1F", "note": "[Example B-2, (S)-2-(2,3-Difluoro-phenyl)-3-(pyrrolidin-3-yloxymethyl)-pyridine fumarate]", "values": [{"measurement": "Ki", "setting": "[1]", "value": 3350, "unit": "nM"}, {"measurement": "Ki", "setting": "[3]", "value": 206, "unit": "nM"}]}, {"compound": "N#Cc1ccc(-c2ccc(F)cc2CO[C@H]2CCNC2)cc1", "note": "[Example D-110, (S)-4′-Fluoro-2′-(pyrrolidin-3-yloxymethyl)-biphenyl-4-carbonitrile]", "values": [{"measurement": "Ki", "setting": "[1]", "value": 1320, "unit": "nM"}, {"measurement": "Ki", "setting": "[3]", "value": 1200, "unit": "nM"}]}, {"compound": "Fc1ccc(-c2ncccc2CO[C@H]2CCNC2)cc1F", "note": "[Example B-3, (S)-2-(3,4-Difluoro-phenyl)-3-(pyrrolidin-3-yloxymethyl)-pyridine fumarate]", "values": [{"measurement": "Ki", "setting": "[1]", "value": 1200, "unit": "nM"}, {"measurement": "Ki", "setting": "[3]", "value": 310, "unit": "nM"}]}, {"compound": "CCc1ccccc1-c1ccc(F)cc1CO[C@H]1CCNC1", "note": "[Example D-113, (S)-3-(2′-Ethyl-4-fluoro-biphenyl-2-ylmethoxy)-pyrrolidine]", "values": [{"measurement": "Ki", "setting": "[1]", "value": 1470, "unit": "nM"}, {"measurement": "Ki", "setting": "[3]", "value": 1340, "unit": "nM"}]}, {"compound": "Fc1ccc(-c2cccc(-n3cccn3)c2)c(CO[C@H]2CCNC2)c1", "note": "[Example D-116, (S)-1-[4′-Fluoro-2′-(pyrrolidin-3-yloxymethyl)-biphenyl-3-yl]-1H-pyrazole]", "values": [{"measurement": "Ki", "setting": "[1]", "value": 38.7, "unit": "nM"}, {"measurement": "Ki", "setting": "[3]", "value": 688, "unit": "nM"}]}]}
